Data as given in patent US11684675B2, “Dimeric collagen hybridizing peptides and methods of using” (University of Utah Research Foundation, priority 2015, dated 2023).
Non-standard residues stand in square brackets, D forms with d. No end group written: not given here. Hyp = O=C(O)[C@@H]1C[C@@H](O)CN1; CF = carboxyfluorescein label

Tests used:
[1] = Triple helix melting point (Tm) by circular dichroism at 225 nm; format: physicochemical; conditions: triple helix melting
Description: FIGS. 5A, 5B, 5C, and 5D show the thermal denaturation of fully assembled CHPs and subsequent cooling to initial temperature. Samples were heated at 1° C./min from their initial temperature final temperature of 90° C. Sample was then cooled at 1° C./min to the starting temperature. (A) Thermal denaturation and partial reassembly of CHP CF-6d (150 μM) monitored at 225 nm. Sample was measured from 4° C. to 90° C. (B) Thermal denaturation and partial reassembly of CHP […] (75 μM, corresponding to 150 μM strand concentration) monitored at 225 nm. Sample was measured from 4° C. to 90° C. (C) Thermal denaturation and partial reassembly of CHP CF-9 (150 μM) monitored at 225 nm. Sample was measured from 10° C. to 90° C. (D) Thermal denaturation and partial reassembly of CHP CF-9d (75 μM, corresponding to 150 μM strand concentration) monitored at 225 nm. Sample was measured from 10° C. to 90° C.
FIGS. 11A and 11B show the First Derivative of mean residue ellipticity (MRE) at 225 nm in CD. […] There is no significant change in melting point between the monomeric and dimeric forms of the same peptide.
Circular Dichroism: Circular Dichroism (CD) was measured for all peptides at 225 nm. Melting curves were taken on peptides between 10 and 80° C. at a heating rate of 0.5° C./min, with pauses at each 1° C. Refolding experiments were performed after peptide solutions were incubated at 4° C. for at least 12 hours. Concentrations were normalized to strand concentration.

[2] = test system: crosslinked gelatin films; experiment: Retention of CF-labelled CHPs in crosslinked gelatin films (bound at 4° C., washed at 25° C./r.t.); format: binding, porcine; conditions: for retention / affinity in gelatin films: 20 μM, preheated 80° C., bound at 4° C., washed at r.t. with PBS, FIG. 6A; for retention in crosslinked gelatin films: Example 3 retention studies
Description: (§1) (A) Fraction of peptide remaining in a crosslinked gelatin film after 17 h at 25° C. (10 total washes). Values are normalized to fluorescence remaining in wells after 6 washes at 4° C. (>95% removal of CHPs 9r, 6r, and 5r). All washes performed in 1×PBS. (B) CHPs (15 μM) premixed into 10% porcine gelatin and preheated to 80° C. (10 min) before being added to a 96 well plate. Excess CHP-gelatin mixture was removed, then the premix was incubated at 4° C. for 2 hours. Wells were washed at 4° C., 5 times (>95% removal of CHPs 9r, 6r, and 5r). Wells were then washed for 2 hours (6 washes total) at 25° C. to monitor CHP remaining in the well. (C) Fluorescence of CHPs remaining in crosslinked gelatin after incubation at 37° C. overnight without preheating, followed by washing with 1×PBS at 37° C. (20 h). (D) Fluorescence of CHPs remaining in crosslinked gelatin after incubation at 37° C. overnight (80° C. preheating, 10 min), followed by washing with 1×PBS at 37° C. (20 h).
Binding to Gelatin films. Peptide solutions (20 μM in PBS) were preheated to 80° C. for 10 minutes before being added directly to the crosslinked gelatin films. Peptides were allowed to fully equilibrate with the gel at 4° C. overnight before being exposed to repeated washes (4×30 min) at 4° to fully remove any non-specifically bound peptide. Gelatin wells were then washed at r.t. with PBS (5×1 h, lx 12 h) to measure retention within the gelatin films. […] To eliminate the possibility of these peptides merely becoming physically entrapped within the gelatin after forming triple helix or forming triple helix before binding, binding affinity was verified by producing a premix of the CHPs and Gelatin to eliminated diffusion-limited binding before washing the wells in a similar manner.
Fluorescence Binding: CHP binding to gelatin was monitored by conjugating a fluorescent Carboxyfluorescein (CF) molecule to the N-terminus of each peptide via standard SPPS. Solutions of the fluorescent peptides were heated to 80° C. for 5 min before injecting 50 μL onto a pre-prepared EDC-crosslinked thin gelatin film in a 96 well plate. Peptides incubated overnight at 4° C., then washed with repeated rounds of 4° C. 1×PBS followed by 25° C. 1×PBS.

[3] = test system: crosslinked gelatin films; experiment: Binding of CF-labelled CHPs to crosslinked gelatin films at 37° C. with and without preheating; set-up: species or system porcine
Description: FIGS. 3A and 3B show the affinity of CHPs to gelatin films as monitored by fluorescence of conjugated CF fluorophore (492 ex, 533 em). (A) Fluorescence of CHPs bound to crosslinked gelatin after incubation at 37° C. overnight with no workup. (B) Fluorescence of CHPs remaining in crosslinked gelatin after incubation at 37° C. overnight without preheating, followed by washing with 1×PBS at 37° C. (20 h).
as §1
Dimeric CHPs were assessed for their ability to bind to collagen strands in crosslinked gelatin films. CHP solutions (20 μM in PBS) were added directly to the crosslinked gelatin films. For heated experiments, CHPs were preheated to 80° C. for 10 minutes before addition. Peptides were allowed to fully equilibrate with the gel at 37° C. overnight before being exposed to repeated washes (4×, PBS) at 37° C. to fully remove any non-specifically bound peptide and to determine binding level at body temperature. To measure retention, peptides were bound as previously described, but were subsequently washed with PBS 37° C. (5×1 h, 1×12 h) to measure retention within the gelatin films. […] Additionally, after a period of 20 hours, higher level of the dimeric CHP remained in the gelatin compared to the monomeric CHP.
A major limitation of the use of CHP in vivo, is the requirement of the triple helix to be fully disassembled before being injected. […] For this test, peptide solutions were allowed to warm to room temperature before being added (50 μL, 20 μM) to previously prepared crosslinked gelatin films. Solutions were then incubated at 37° C. overnight before removing the solution. Wells were washed at 37° C. with PBS (20 h) to determine binding. Preheated samples were prepared and incubated in the same way, but with preheating (80° C., 10 min) before being added to the crosslinked gelatin wells.

Row | Substance | Tm (° C.) ([1]; Table 2) | retention / affinity in gelatin films [2] | Tm (° C.) ([1]; Table 1) | further results
1 | [(GPO)6G3)2KG3K^Biotin [b-6d] | 37 (SEQ ID NO: 65) ° C. | – | – | –
2 | [(CF-G3GPO)5G3)2KG ({CF}-GGGGP[Hyp]GP[Hyp]GP[Hyp]GP[Hyp]GP[Hyp]GGGKGGG[Hyp]PG[Hyp]PG[Hyp]PG[Hyp]PG[Hyp]PGGGG; not fully specified (C-terminus); also: lysine-branched dimer: K22 is the branch point, second arm (23-43) is written reversed, its N-terminus at position 43 carries CF) [CF-5d] | 28 (SEQ ID NO: 70) ° C. | higher affinity to the gelatin films than CF-6 | – | –
3 | [(GPO)5G3)2KG (GP[Hyp]GP[Hyp]GP[Hyp]GP[Hyp]GP[Hyp]GGGKGGG[Hyp]PG[Hyp]PG[Hyp]PG[Hyp]PG[Hyp]PG; not fully specified (C-terminus); also: lysine-branched dimer: K19 is branch point carrying two arms and a third (C-terminal) Gly, residues 20-37 are the second arm written in reverse order) [5d] | 27 (SEQ ID NO: 68) ° C. | – | – | –
4 | CF-G3-(GPO9) [CF-9] | 69 (SEQ ID NO: 57) ° C. | – | 69 (SEQ ID NO: 57) ° C. | retention in crosslinked gelatin films [2]: 58%
5 | [(GPO)9G3)2KG3K^Biotin [b-9d] | 68 (SEQ ID NO: 62) ° C. | – | – | –
6 | (GPO)5 [compound 5, reference compound] | 27 (SEQ ID NO: 67) ° C. | – | – | binding to gelatin wells at 37° C. without preheating ([3]; 20 μM, 37° C. overnight, PBS wash 20 h, FIG. 6C): do not have a strong enough affinity to the gelatin to bind effectively at physiologic temperature
7 | [(CF-G3GPO)6G3)2KG [CF-6d] | 50 (SEQ ID NO: 63) ° C. | comparable affinity to that of the GPO9 monomer (CF-9) and GPO9 dimer (CF-9d) | 50 (SEQ ID NO: 63) ° C. | retention in crosslinked gelatin films [2]: 66%; more peptide remaining after 20 hours of wash ([3]; 37° C., non-preheated, vs currently utilized CHP, FIG. 17): 50%; higher initial binding to the gelatin substrate ([3]; non-preheated, vs currently utilized CHP, FIG. 17): 350%
8 | (GPO)6-G3K^Biotin [b-6] | 36 (SEQ ID NO: 64) ° C. | – | – | –
9 | [(CF-Ahx-GPO)9G3)2KG [CF-9d] | 73 (SEQ ID NO: 55 w/label) ° C. | – | 73 (SEQ ID NO: 55 °C | –
10 | (GPO)9-G3K^Biotin [b-9] | 68 (SEQ ID NO: 61) ° C. | – | – | –
11 | CF-G3-(GPO6) (GGGGPPGPPGPPGPPGPPGPP; carboxyfluorescein label; collagen hybridizing peptide; (6)..(6) Proline is hydroxyproline; (9)..(9) Proline is hydroxyproline; (12)..(12) Proline is hydroxyproline; (15)..(15) Proline is hydroxyproline; (18)..(18) Proline is hydroxyproline; (21)..(21) Proline is hydroxyproline) [CF-6] | 37 (SEQ ID NO: 60) ° C. | almost entirely washed out of the gelatin films | 37 (SEQ ID NO: 60) ° C. | –
12 | CF-G3-(GPO5) (GGGGPPGPPGPPGPPGPP; carboxyfluorescein label; collagen hybridizing peptide; (6)..(6) Proline is hydroxyproline; (9)..(9) Proline is hydroxyproline; (12)..(12) Proline is hydroxyproline; (15)..(15) Proline is hydroxyproline; (18)..(18) Proline is hydroxyproline) [CF-5, reference compound] | 28 (SEQ ID NO: 69) ° C. | almost entirely washed out of the gelatin films | – | –
